For data set [1], the system named is Stubenfliegen-Larven (Musca domestica). Nature of the data set: Breeding test with housefly larvae on treated nutrient medium. Type of data set: in vivo. Particulars: development observed over one week; for mortality at 10 µg/mL / mortality at 25 µg/mL: Musca domestica, 168 h, read-out: Mortalitätsrate; for mortality at 10 µg/mL: Wirkstoffkonzentration 10 ppm; for mortality at 25 µg/mL: Wirkstoffkonzentration 25 ppm; for Mortalitätsrate: Wirkstoffkonzentration 50 ppm. The procedure:
Zuchtversuch mit Stubenfliegen-Larven (Musca domestica)
50 g eines Nährbodens aus Bäckerhefe, Trockenmilch, Wasser und Agar werden in warmem Zustand gründlich mit der wäßrigen Wirkstoffaufbereitung gemischt.
Nach dem Erkalten belegt man den Nährboden mit ca. 0,1 ml Fliegeneiern und beobachtet deren Entwicklung über eine Woche.

A further data set deals with Blattläuse (Aphis fabae). Particulars: evaluated after 24 hours.
Data set [2] deals with Spinnmilben (Tetranychus telarius). Nature of the data set: whole plant or invertebrate. The following applies: 144 h, read-out: Mortalitätsrate.
Data set [3] deals with Wurzelgallennemathoden (Meloidogyne incognita). Briefly: Action on root-knot nematodes, drench of tomato plants in infested compost soil. The format is in vivo. The following applies: 30 ml drench, roots rated after 6 to 8 weeks. The procedure:
Wirkung auf Wurzelgallennemathoden (Meloidogyne incognita)
Junge Tomatenpflanzen werden in je 500 g Komposterde gepflanzt, die stark mit Wurzelgallennematoden infiziert ist.
Nach 3 Tagen erfolgt die Behandlung mit der wäßrigen Wirkstoffaufbereitung durch Gießen von 30 ml Aufbereitung.
Nach 6 bis 8 Wochen bonitiert man die Wurzeln auf Gallenbildung.

Data set [4] concerns Moskito-Larven (Aedes aegypti). Nature of the data set: whole plant or invertebrate. Particulars: 24 h, read-out: Mortalitätsrate.
The test system of data set [5] is Spinnmilben (Tetranychus telarius). Particulars: assessed after 6 days.
Data set [6] concerns Moskito-Larven (Aedes aegypti). The following applies: Wirkstoffkonzentration 1 ppm; 4th instar larvae, 20°C, after 24 hours.
[7] abbreviates: Wirkstoffkonzentration 0,05 (unit not given).

Read-outs that look alike come from different tables or passages of the source.

For the compound `CCOP(=O)(SCc1csc(Cl)c1Cl)SCC(C)C` (stereo not drawn) [Wirkstoff I, O-Äthyl-S-isobutyl-S-(2,3-dichlor-thienyl-4-methyl)-dithiophosphat], in data set [1], the mortality at 10 µg/mL came out at 80% and the mortality at 25 µg/mL stood at 100%. This compound also registered a Mortalitätsrate with Blattläuse (Aphis fabae) (Wirkstoffkonzentration 0,02 (unit not given)) of 90%. In the data set with Blattläuse (Aphis fabae) (setting [7]), the Mortalitätsrate came out at 100%. Further, in data set [2], the mortality at 0.02 % was found to be 100% and the mortality at 0.05 % was 100%.

As for `CCOP(=O)(SCc1csc(Cl)c1Cl)SC(C)CC` (stereo not shown) [Wirkstoff III], in data set [1], the mortality at 10 µg/mL came out at 100% and the mortality at 25 µg/mL was 100%. The Gallenbildung entry in data set [3] (Wirkstoffkonzentration 0,05 %) is reported as “keine Gallenbildung”. In addition, in data set [2], the mortality at 0.01 % turned out to be 100%, the mortality at 0.02 % was determined as 100% and the mortality at 0.05 % is 100%. For the same compound, in data set [4], the mortality at 0.25 µg/mL was determined as 100%, the mortality at 0.5 µg/mL is 100% and the mortality at 1 µg/mL stood at 100%.

On to `CNC(=O)CSP(=S)(OC)OC` [Wirkstoff V1, 0,0-Dimethyl-S-(N-methyl-carbamoylmethyl)-phosphordi-thioat], for which the Gallenbildung entry in data set [3] (Wirkstoffkonzentration 0,1 %) is “unwirksam”.

Consider `CCOP(=S)(OCC)SCc1ccsc1` [Wirkstoff V2, 0,0-Diäthyl-S-(tienyl-4-methyl)-dithiophosphat, reference compound], for which the Mortalitätsrate result (in data set [1]; in data set [5] (Wirkstoffkonzentration 0,05 %); in data set [6]; with Blattläuse (Aphis fabae) (setting [7])) was “unwirksam” throughout. For the same compound, the Gallenbildung result in data set [3] (Wirkstoffkonzentration 0,1 %) is “unwirksam”. The mortality at 0.1 % in data set [2] amounted to 80%.

`CCOP(=S)(OCC)SCc1csc(Cl)c1Cl` [Wirkstoff V3, 0,0-Diäthyl-S-(2,3-dichlor-thienyl-4-methyl)-dithiophosphat]: the Mortalitätsrate result in data set [1], in data set [5] (Wirkstoffkonzentration 0,1 %) and in data set [6] was “unwirksam” throughout.

Source of the values: patent EP0008361A1, “Halogen-substituted thiophene derivatives and method for their preparation” (priority 1978, dated 1980).
